Structures can show the parent of a compound that is named as a salt.
Tests used:
[1] = tested on: conscious Heidenhain pouch dogs; assay: Gastric acid antisecretory activity, pentagastrin-stimulated acid output; assay type: in vivo; conditions: 0.1 mg/kg intravenously, overnight-fasted Heidenhain pouch dogs, lowest acid output after drug vs mean before drug
Procedure: The gastric acid antisecretory activity of compounds of the present invention was determined in overnight-fasted, conscious Heidenhain pouch dogs as follows:
Pentagastrin (Pentavlon-Ayerst) is used to stimulate acid output by continuous infusion into a superficial leg vein at doses earlier determined to stimulate near maximal acid output from the gastric pouch. Gastric juice is collected at 30 minute intervals following the start of a pentagastrin infusion and measured to the nearest 0.1 ml. Ten collections are taken for each dog during an experiment. Acid concentration is determined by titrating 1.0 ml. of gastric juice to pH 7.4 with 0.1N sodium hydroxide using an Autoburette and a glass electrode pH meter (Radiometer).
Drug or vehicle is given intravenously or orally 90 minutes following the start of the pentagastrin infusion, at a dose of 2 mg/kg or less. Gastric acid antisecretory effects are calculated by comparing the lowest acid output after drug administration with the mean acid output immediately before drug.

histamine H2-receptor = target: T1, histamine H2-receptor (Cavia porcellus, UniProt P47747); assay: Histamine-H2 antagonist activity in isolated right atria; assay type: cell-based, Guinea pigs; conditions: guinea pig right atria, histamine dose-response, Krebs-Henseleit buffer pH 7.4, 32°C; read-out: pA2 (converted)
T1 construct: the heart removed and the right atria dissected free; from tissue; host or cells: guinea pig isolated right atria
T1 sequence (P47747 whole entry): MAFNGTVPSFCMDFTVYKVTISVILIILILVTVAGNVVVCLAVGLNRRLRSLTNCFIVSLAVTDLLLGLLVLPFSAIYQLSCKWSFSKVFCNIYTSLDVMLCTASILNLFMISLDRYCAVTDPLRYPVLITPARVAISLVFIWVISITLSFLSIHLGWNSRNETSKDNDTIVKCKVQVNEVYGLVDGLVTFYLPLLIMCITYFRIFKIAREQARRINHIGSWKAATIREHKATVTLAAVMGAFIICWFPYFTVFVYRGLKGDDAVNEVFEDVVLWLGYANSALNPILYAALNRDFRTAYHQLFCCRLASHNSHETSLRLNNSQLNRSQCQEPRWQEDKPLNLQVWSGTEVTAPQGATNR
Procedure: The histamine-H2 antagonist activity of compounds of the present invention was determined by the following procedure:
Guinea pigs are killed rapidly with a blow to the head, the heart removed and the right atria dissected free. Atria are suspended, isometrically, in a temperature-controlled (32°±2° C.) tissue bath (10 ml.) containing oxygenated (95% O2; 5% CO2) Krebs-Henseleit buffer (pH 7.4) and are allowed to stabilize approximately one hour during which time the tissue bath is flushed several times. Individual atrial contractions are followed with a force-displacement transducer connected to a cardiotachometer and Grass polygraph recorder. After obtaining a dose-response curve to histamine, the bath containing each atrium is flushed several times with fresh buffer and the atria re-equilibrated to basal rates. Following the return to basal rate, test compounds are added at selected final concentrations and the histamine dose-response curve is again determined in the presence of antagonist. Results are expressed as dose-ratios, the ratio of histamine concentrations required to produce one-half of maximal stimulation in the presence and absence of antagonist, and the apparent dissociation constant of the H2 -receptor antagonist pA2, is determined.

male rats = assay: Inhibition of ethanol-induced ulceration in rats; assay type: in vivo; conditions: oral dose of 30 mg/kg, fifteen minutes prior to oral absolute ethanol (1.0 ml); ulcer index vs controls
Procedure: The antiulcer activity of the products of this invention was determined by an ethanol-induced rat ulcer assay. In this test, overnight fasted male rats are given drug (at 30 or 3 mg/kg) or water orally fifteen minutes prior to an orally administered dose of absolute ethanol (1.0 ml.). One hour after the ethanol challenge the animals (8/group) are killed and the stomachs examined for the presence of lesions. After sacrifice the abdomen is opened and a locking hemostat placed at the pylorus. Six ml. of a 4% solution of formaldehyde is injected into the stomach with a gastric feeding tube and a second locking hemostat is used to seal the esophagus. The stomach is removed, opened along the greater curvature and examined for ulceration.
The scoring system used to quantitate the ethanol-induced lesions is given below.
For each group of animals an ulcer index is calculated as follows: EXAMPLE 8 (Cont.)
Ulceration Index=(the sume of the scores of the group)×(the sum of the number of ulcers in the group)×(the fraction of the group havnng any incidence of ulceration).
The percentage inhibition of ulcers is calculated as follows:
% Inhibition=100×[(ulcer index controls) - (ulcer index drug-treated)][…](ulcer index controls).

Compound	inhibition (gastric acid antisecretory effect) [1]	Kb (histamine H2-receptor)	inhibition of ethanol-induced ulceration (male rats)
CCCCCCN(C)Cc1ccc(-c2csc(NC(=N)N)n2)o1 [3 (2HBr salt), 2-Guanidino-4-(5-[N-n-hexyl-N-methylaminomethyl]-2-furyl)thiazole]	24%	100 nM	49%
CCCCCCNC(=N)Nc1nc(-c2ccc(CN(C)C)o2)cs1 [4 (2HBr salt), 2-(3-n-Hexylguanidino)-4-(5-[N,N-dimethylaminomethyl]-2-furyl)thiazole]	38%	1000 nM	93%
Br.Br.CN(C)Cc1ccc(-c2csc(NC(=N)N)n2)o1 [Example 2, 2-Guanidino-4-(5-[N,N-dimethylaminomethyl]-2-furyl)thiazole Dihydrobromide]	44%	20 nM	7%

— patent US4814341A, “2-guanidino-4-(2-furyl) thiazoles as antiulcer agents” (priority 1988, dated 1989)
